Test results as given in patent publication US6727066B2, “Genes expressed in treated human C3A liver cell cultures” (Incyte Corporation, priority 2000, dated 2004).

Key:
[1] = test system: human C3A liver cell cultures; assay: Microarray differential expression of cDNAs in treated human C3A liver cell cultures; type: cell-based; conditions: change vs untreated C3A cells
[2] = cited from earlier work

CCOC(=O)[C@H](CCc1ccccc1)N[C@@H](C)C(=O)N1CCC[C@H]1C(=O)O [Enalapril]
expression level of cDNA clone 63038 [1]: −2.97 | expression level of cDNA clone 118501 [1]: 6.06 | expression level of cDNA clone 160822 [1]: 2.39 | expression level of cDNA clone 279898 [1]: 4.08 | expression level of cDNA clone 630625 [1]: 2.51 | expression level of cDNA clone 1308112 [1]: 2.14 | expression level of cDNA clone 1368834 [1]: 2.43 | expression level of cDNA clone 1379063 [1]: −2.44 | expression level of cDNA clone 1448718 [1]: −3.91 | expression level of cDNA clone 1696224 [1]: 3.97 | expression level of cDNA clone 1711151 [1]: 2.48 | expression level of cDNA clone 1861456 [1]: −2.51 | expression level of cDNA clone 1930235 [1]: 3 | expression level of cDNA clone 1975268 [1]: −2.75 | expression level of cDNA clone 1998269 [1]: 2.27 | expression level of cDNA clone 2055569 [1]: −3.1 | expression level of cDNA clone 2123516 [1]: 3.71 | expression level of cDNA clone 2513883 [1]: 3.82 | expression level of cDNA clone 2757583 [1]: 4.13 | expression level of cDNA clone 2884613 [1]: 2.51 | expression level of cDNA clone 2921991 [1]: −4.67 | expression level of cDNA clone 2933775 [1]: 4.73 | expression level of cDNA clone 2955163 [1]: 2.33 | expression level of cDNA clone 4556538 [1]: 3.02 | time of peak plasma concentration ([2]; enalapril given orally): within an hour | oral bioavailability ([2]; given orally, not reduced by food): about 60% | half-life ([2]; in vivo): 1.3 h

C[C@@H]1C[C@H]2[C@@H]3CCC4=CC(=O)C=C[C@]4(C)[C@@]3(F)[C@@H](O)C[C@]2(C)[C@@]1(O)C(=O)CO [Dexamethasone]
expression level of cDNA clone 26474 [1]: −4.2 | expression level of cDNA clone 63038 [1]: −2.36 | expression level of cDNA clone 118501 [1]: 2.79 | expression level of cDNA clone 167081 [1]: 2.14 | expression level of cDNA clone 172023 [1]: −5.8 | expression level of cDNA clone 237027 [1]: −2.85 | expression level of cDNA clone 630625 [1]: 2.52 | expression level of cDNA clone 990375 [1]: −2.5 | expression level of cDNA clone 1379063 [1]: −3.42 | expression level of cDNA clone 1381654 [1]: 2.57 | expression level of cDNA clone 1441245 [1]: −2.3 | expression level of cDNA clone 1448718 [1]: −3.1 | expression level of cDNA clone 1468660 [1]: −3.3 | expression level of cDNA clone 1559756 [1]: 2.47 | expression level of cDNA clone 1616783 [1]: 2.55 | expression level of cDNA clone 1619292 [1]: −4.4 | expression level of cDNA clone 1623214 [1]: −2.25 | expression level of cDNA clone 1630990 [1]: 2.86 | expression level of cDNA clone 1696224 [1]: 2.83 | expression level of cDNA clone 1786554 [1]: 2.66 | expression level of cDNA clone 1833362 [1]: −3.7 | expression level of cDNA clone 1834236 [1]: −2.3 | expression level of cDNA clone 1846209 [1]: 2.2 | expression level of cDNA clone 1890576 [1]: −2.5 | expression level of cDNA clone 1975268 [1]: −3.35 | expression level of cDNA clone 1998269 [1]: 2.44 | expression level of cDNA clone 2046717 [1]: 2.8 | expression level of cDNA clone 2048551 [1]: 2.91 | expression level of cDNA clone 2120743 [1]: 3.25 | expression level of cDNA clone 2123516 [1]: 2.66 | expression level of cDNA clone 2160794 [1]: −2.51 | expression level of cDNA clone 2195427 [1]: 2.3 | expression level of cDNA clone 2343348 [1]: 2.18 | expression level of cDNA clone 2470485 [1]: −2.8 | expression level of cDNA clone 2513883 [1]: 3.93 | expression level of cDNA clone 2660756 [1]: 2.21 | expression level of cDNA clone 2757583 [1]: 4.93 | expression level of cDNA clone 2822027 [1]: 3 | expression level of cDNA clone 2921991 [1]: −2.95 | expression level of cDNA clone 2925373 [1]: −2.63 | expression level of cDNA clone 2933775 [1]: 4.32 | expression level of cDNA clone 3028719 [1]: −2.6 | expression level of cDNA clone 3084204 [1]: −2.47 | expression level of cDNA clone 3109384 [1]: 2.6 | expression level of cDNA clone 3170010 [1]: −3.67 | expression level of cDNA clone 3284411 [1]: −2.4 | expression level of cDNA clone 3715059 [1]: −3.17 | expression level of cDNA clone 4091186 [1]: 2.45 | expression level of cDNA clone 4508879 [1]: 2.86 | expression level of cDNA clone 5399371 [1]: 2.63

C[C@H](N[C@@H](CCc1ccccc1)C(=O)O)C(=O)N1CCC[C@H]1C(=O)O [Enalaprilat, enalaprilat]
plasma half-life ([2]; in vivo): about 11 hours

O=c1cc(N2CCOCC2)oc2c(-c3ccccc3)cccc12 [LY294002]
expression level of cDNA clone 172023 [1]: −3.38 | expression level of cDNA clone 279898 [1]: 6.7 | expression level of cDNA clone 459372 [1]: 4.65 | expression level of cDNA clone 1315663 [1]: −3.27 | expression level of cDNA clone 1468660 [1]: −2.28 | expression level of cDNA clone 1975268 [1]: −3.45 | expression level of cDNA clone 1998269 [1]: −2.46 | expression level of cDNA clone 2769888 [1]: −3.37 | expression level of cDNA clone 3427373 [1]: 4.2 | expression level of cDNA clone 3715059 [1]: −4.3 | expression level of cDNA clone 4556538 [1]: 2.45
